Assay results as given in patent US20110190199A1, “Combination Therapy for Tuberculosis” (priority 2008, published 2011).
Several values for one entry are separate records, joined by “and”; a condition that tells them apart may be missing. Equal values may be shown once. Marks after values point to notes of the source that are not given here.

Columns and labels:
M. tuberculosis H37Rv = test: Example 9: compound of formula I added to first and second line anti-tuberculosis drugs (survival, lung CFU after 4 weeks); type: in vivo, mice; details: for Mean lung log10 CFU count (±) S.D. after 4 weeks of treatment with: Regimen + U 25 mg/kg: labelled drug PLUS U 25 mg/kg; for Mean lung log10 CFU count (±) S.D. after 4 weeks of treatment with: Regimen + U 25 mg/kg / Mean lung log10 CFU count (±) S.D. after 4 weeks of treatment with: Regimen + U 100 mg/kg / Mean lung log10 CFU count (±) S.D. after 4 weeks of treatment with: Regimen alone: D0 8.36 ± 0.10; for Mean lung log10 CFU count (±) S.D. after 4 weeks of treatment with: Regimen + U 100 mg/kg: labelled drug PLUS U 100 mg/kg, lower limit of detection 3.40; for Time to 50% mortality: no treatment 21 days; for Mean lung log10 CFU count (±) S.D. after 4 weeks of treatment with: Regimen alone: H 10, R 10, Eb 100, M 100 mg, Et 50, A 150 sc, C 20 mg/kg
[1] = test system: Mycobacterium tuberculosis H37Rv; test: Example 6: in vivo activity of the combination (lung CFU after 4 and 8 weeks); parameters: species or system mice; details: for Lung log10 CFU counts (±SD) after treatment with the indicated regimen plus the compound of formula (I) 100 mg/kg/day, Day 28 / Lung log10 CFU counts (±SD) after treatment with the indicated regimen plus the compound of formula (I) 100 mg/kg/day, Day 56: labelled regimen PLUS compound of formula (I) 100 mg/kg/day, INH 25, RIF 10, PZA 150, MXF 100 mg/kg; for Lung log10 CFU counts (±SD) after treatment with the indicated regimen plus the compound of formula (I) 100 mg/kg/day, Day 28 / Lung log10 CFU counts (±SD) after treatment with the indicated regimen plus the compound of formula (I) 100 mg/kg/day, Day 56 / Lung log10 CFU counts (±SD) after treatment with the indicated regimen, Day 56 / Lung log10 CFU counts (±SD) after treatment with the indicated regimen, Day 28: Day 0 7.37 ± 0.12; for reduction in lung CFU counts from baseline over the first 28 days: monotherapy, compound of formula (I) 100, INH 25, RIF 10 mg/kg; for Lung log10 CFU counts (±SD) after treatment with the indicated regimen, Day 56 / Lung log10 CFU counts (±SD) after treatment with the indicated regimen, Day 28: regimen as labelled, INH 25, RIF 10, PZA 150, MXF 100, compound of formula (I) 100 mg/kg; for Lung log10 CFU counts (±SD) after treatment with the indicated regimen, Day 28: 100 mg/kg
[2] = test system: Mycobacterium tuberculosis H37Rv; test: Example 8B: eight week dose ranging study (second phase after 4 weeks RHZU25); type: in vivo, mice; parameters: Lung CFU / CFU-U only: unit not given here; details: 8 weeks: 4 weeks RHZU25 (4.19 ± 0.26) then 4 weeks of the labelled treatment; R 10, H 25 mg/kg; untreated 5.49 ± 0.23
Protocol: Eighty of the mice from Group 4 (in Example 8A) that had been receiving 25 mg/kg of the compound of formula I (U) along with rifampin(R), isoniazid(H), and pyrazinamide(Z) were evaluated in the second phase of the study. They were assigned to one of the groups described below in Table 6 and the study was continued for an additional 4 weeks (i.e. 8 week results).
As described above, 5 animals served as the control and no further drugs were given. Five were given the combination of rifampin(R) and isoniazid (H), five given isoniazid (H) or rifampin(R) alone. […] Six of these groups were also dosed with rifampin (R). The rifampin and isoniazid was dosed in the same manner and in the same amount as in Example 8A.
At the conclusion of the eight (8) week experiment, all of the animals were sacrificed and CFU lung counts were obtained.

[3] = test system: Mycobacterium tuberculosis H37Rv; type: in vivo, mice; details: 25 mg/kg
[4] = test system: Mycobacterium tuberculosis H37Rv; test: Example 8C: additional dose ranging study (4 and 8 weeks); type: in vivo, mice; details: lung; 4 weeks RHZU100 then 4 weeks of the labelled control regimen without U; untreated 4.91 ± 0.17
Protocol: The protocol described above in Example 8A and 8B was carried out on an alternative occasion. The only substantive changes were the number of animals per group and the initial incubation period.
Testing continued for an additional 4 weeks with 60 of the mice from Test Group 2 immediately above. The mice either received U alone, at varying doses, or the combination of U and R. The following results were obtained.

Compound	Mean lung log10 CFU count (±) S.D. after 4 weeks of treatment with: Regimen + U 25 mg/kg (M. tuberculosis H37Rv) [log10 CFU]	Mean lung log10 CFU count (±) S.D. after 4 weeks of treatment with: Regimen + U 100 mg/kg (M. tuberculosis H37Rv)	Time to 50% mortality (M. tuberculosis H37Rv) [days]	Mean lung log10 CFU count (±) S.D. after 4 weeks of treatment with: Regimen alone (M. tuberculosis H37Rv) [log10 CFU]	also measured
NC(=O)c1cnccn1 [Z, pyrazinamide]	4.73 ± 0.38	≦3.59*** log10 CFU	21	–	–
COc1c(N2C[C@@H]3CCCN[C@@H]3C2)c(F)cc2c(=O)c(C(=O)O)cn(C3CC3)c12 [M, moxifloxacin]	7.08 ± 0.10	5.33 ± 0.30 log10 CFU	–	6.49 ± 0.12	–
CC(C)/N=c1\cc2n(-c3ccc(Cl)cc3)c3ccccc3nc-2cc1Nc1ccc(Cl)cc1 [C, clofazimine]	6.25 ± 0.20	4.91 ± 0.14 log10 CFU	–	5.92 ± 0.24	–
NNC(=O)c1ccncc1 [INH, isoniazid]	6.22 ± 0.06	5.79 ± 0.33 log10 CFU	–	7.01 ± 0.14	Lung log10 CFU counts (±SD) after treatment with the indicated regimen plus the compound of formula (I) 100 mg/kg/day, Day 28 [1]: 4.33 ± 0.29 log10 CFU; Lung log10 CFU counts (±SD) after treatment with the indicated regimen plus the compound of formula (I) 100 mg/kg/day, Day 56 [1]: 2.87 ± 0.23 log10 CFU; reduction in lung CFU counts from baseline over the first 28 days [1]: 1.58 log10; Lung log10 CFU counts (±SD) after treatment with the indicated regimen, Day 56 [1]: 4.53 ± 0.24 log10 CFU; Lung log10 CFU counts (±SD) after treatment with the indicated regimen, Day 28 [1]: 5.79 log10 CFU and 5.79 ± 0.14 log10 CFU; Lung CFU [2]: 4.46 ± 0.37; log kill (reduction in mean lung CFU count compared to the baseline value) ([3]; 28 days): 1.87 log10; mean spleen weight ([3]; after 28 days of treatment, pre-treatment 105±11 mg, untreated 237±16 mg): 100 ± 1 mg
CO[C@H]1/C=C/O[C@@]2(C)Oc3c(C)c(O)c4c(O)c(c(/C=N/N5CCN(C)CC5)c(O)c4c3C2=O)NC(=O)/C(C)=C\C=C\[C@H](C)[C@H](O)[C@@H](C)[C@@H](O)[C@@H](C)[C@H](OC(C)=O)[C@@H]1C [RIF, rifampin]	5.91 ± 0.21	5.02 ± 0.10 log10 CFU	–	6.23 ± 0.11	Lung log10 CFU counts (±SD) after treatment with the indicated regimen plus the compound of formula (I) 100 mg/kg/day, Day 28 [1]: 3.73 ± 0.19 log10 CFU; Lung log10 CFU counts (±SD) after treatment with the indicated regimen plus the compound of formula (I) 100 mg/kg/day, Day 56 [1]: 1.29 ± 0.22 log10 CFU; reduction in lung CFU counts from baseline over the first 28 days [1]: 1.63 log10; Lung log10 CFU counts (±SD) after treatment with the indicated regimen, Day 56 [1]: 4.65 ± 0.24 log10 CFU; Lung log10 CFU counts (±SD) after treatment with the indicated regimen, Day 28 [1]: 5.74 log10 CFU and 5.74 ± 0.17 log10 CFU; Lung CFU [2]: 4.18 ± 0.55; CFU Count 8 weeks [4]: 4.16 ± 0.65
capreomycin	6.81 ± 0.13	5.35 ± 0.17 log10 CFU	22	–	–
Nc1ccc(C(=O)O)c(O)c1 [Ps, para-aminosalicyclic acid]	6.87 ± 0.21	5.39 ± 0.32 log10 CFU	31	–	–
NCC[C@H](O)C(=O)N[C@@H]1C[C@H](N)[C@@H](O[C@H]2O[C@H](CN)[C@@H](O)[C@H](O)[C@H]2O)[C@H](O)[C@H]1O[C@H]1O[C@H](CO)[C@@H](O)[C@H](N)[C@H]1O [A, amikacin]	6.78 ± 0.16	5.18 ± 0.17 log10 CFU	–	7.24 ± 0.14	–
N[C@@H]1CON=C1O [Cs, cycloserine]	7.19 ± 0.21	5.66 ± 0.11 log10 CFU	22	–	–
CC[C@@H](CO)NCCN[C@@H](CC)CO [Eb, ethambutol]	6.86 ± 0.16	5.50 ± 0.13 log10 CFU	30	7.41 ± 0.57	–
CCc1cc(C(N)=S)ccn1 [Et, ethionamide]	7.18 ± 0.18	5.46 ± 0.15 log10 CFU	–	7.19 ± 0.04	–
